Measured values taken from PMC7381740 (Theranostics, 2020).
Values joined by “and” are separate entries in the source; they are usually repeats but may differ in a detail not shown here. Equal entries are not always repeated.

Assays:
[1] = Metabolite analysis in plasma and brain (radio-HPLC after i.v. injection); type: in vivo, rat
Procedure: Blood samples were collected at 1, 2, 5 min post-injection and at 10, 20, 40 or 60 min post-injection when the animals were sacrificed. Seven animals used for metabolites analysis were also scanned for 60 min. Plasma was isolated by centrifugation (3 min, 3000 × g at 4 °C). Two hundred µL of CH3CN was added to 200 µL of serum for protein precipitation and after centrifugation (3 min, 3000 × g at 4 °C), 100 µL of supernatant was injected into the HPLC for quantification (HPLC equipment: Shimadzu prominence with a UV detector and bespoke Scintillation detector; column: ACE 3 C18 HL, [Hichrom], 150 × 4.6 mm; porosity: 3 μm; solvent A: 0.1 M ammonium acetate; solvent B: CH3CN, isocratic elution: 50:50 (A/B) in 15 min; flow rate: 1 mL/min; room temperature; absorbance detection at λ = 254 nm). Animal brains were removed and then homogenised by ultra-Turrax® in 2 mL of ice-cold acetonitrile. After centrifugation (3 min, 9000 × g at 4 °C), the supernatant was separated from the pellet. One hundred microliters of brain supernatant were injected on the HPLC column (same conditions as above). Control samples were spiked with 15 µL of stable standard. The parent radiotracer eluted at 11 minutes.

S1R = S1R (Rattus norvegicus, UniProt Q9R0C9); assay: PET in AMPA excitotoxic lesion model; type: in vivo
Chain of S1R (Q9R0C9 whole entry): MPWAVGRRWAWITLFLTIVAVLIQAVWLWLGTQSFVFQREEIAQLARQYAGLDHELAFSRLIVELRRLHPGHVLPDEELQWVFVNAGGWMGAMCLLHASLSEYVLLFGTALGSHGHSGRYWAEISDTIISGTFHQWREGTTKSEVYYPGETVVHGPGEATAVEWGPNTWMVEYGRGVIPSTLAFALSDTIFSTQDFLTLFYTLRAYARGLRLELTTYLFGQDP
Procedure: Animals were maintained normothermic (body temperature: 37.0 ± 0.4 °C) during the surgery through the use of a heating blanket (Homeothermic Blanket Control Unit, Harvard Apparatus Limited®, Edenbridge, Kent, UK). Twenty-four hours later, the rats were anesthetized again as described above and scanned with a 3T cryogen-free MRS 3000 scanner with a quadrature, rat head coil (MR Solutions, Guildford, UK), [35] to assess oedema (i.e. lesion size and location) immediately before the PET scan. Parameters for the T2-weighted RARE sequence were: repetition time = 4800 ms, base echo time = 17 ms, effective echo time = 68 ms, number of echoes = 8, bandwidth = 20 kHz, number of samples = 256, number of views = 240, number of averages = 1 with 25 slices of 1.06 mm, giving a final voxel size of 0.136 × 0.136 × 1.06 mm.
PET data were expressed as SUV.
As the experiments with CM398 were performed later, scans without and with pre-treatment with CM398 were performed in the same animals and therefore were analysed using 2 way ANOVA with repeated measures for ROI and treatment. ANOVA were followed by a Sidak's post-hoc test.

FCCOc1ccc(CN2CCN(Cc3cc4ccccc4o3)CC2)cc1 [^18F-IAM6067, N-(2-Benzofuranylmethyl)-N'-[4-(2-fluoroethoxy)benzyl]piperazine]
Percentage of ^18F-IAM6067 and metabolites ([1]; rat brain, 10 min post-injection): 91.3±3.7%
Percentage of ^18F-IAM6067 and metabolites ([1]; rat brain, 20 min post-injection): 94.1±2.8%
Percentage of ^18F-IAM6067 and metabolites ([1]; rat brain, 60 min post-injection): 91.3±6.0%
Percentage of ^18F-IAM6067 and metabolites ([1]; rat plasma, 1 min post-injection): 88.8±12.1%
Percentage of ^18F-IAM6067 and metabolites ([1]; rat plasma, 2 min post-injection): 58.3±4.1%
Percentage of ^18F-IAM6067 and metabolites ([1]; rat plasma, 5 min post-injection): 22.4±11.6%
Percentage of ^18F-IAM6067 and metabolites ([1]; rat plasma, 10 min post-injection): ~10%
Percentage of ^18F-IAM6067 and metabolites ([1]; rat plasma, 10 min post-injection, listed as Parent): 10.1±8.6%
Percentage of ^18F-IAM6067 and metabolites ([1]; rat plasma, 20 min post-injection): ~10%
Percentage of ^18F-IAM6067 and metabolites ([1]; rat plasma, 20 min post-injection, listed as Parent): 9.8±4.2%
Percentage of ^18F-IAM6067 and metabolites ([1]; rat plasma, 60 min post-injection): not detectable
Percentage of ^18F-IAM6067 and metabolites ([1]; rat plasma, 60 min post-injection, listed as Parent): 0.0%
^18F-IAM6067 uptake, AMPA-lesioned vs control rats (in words) (S1R; ipsi- and contralateral substantia nigra and pons-raphe): significant increase
change in ^18F-IAM6067 uptake (PET) (S1R; lesioned caudate-putamen, 24 h after intrastriatal AMPA 7.5 nmol): -16% and -16 ± 11%
